What was measured:
[1] = test system: demyelinated spinal cord lesions in chronic EAE of female Hartley guinea pigs; experiment: Spontaneous remyelination in chronic EAE guinea pigs (solochrome-R-cyanin, toluidine blue semithin sections, EM, lesion area analysis); format: in vivo, guinea pig; conditions: for area of thinly myelinated axons in toluidine blue semithin sections vs saline / electron microscopy of lesioned spinal cord: day 30 of treatment
[2] = test system: experimental allergic encephalomyelitis in female Hartley guinea pigs; experiment: Chronic EAE in guinea pigs: histological analysis and pathological score of brain and spinal cord; format: in vivo, guinea pig; conditions: for spinal cord histology after 20 days of treatment (day 60 post immunization) / spinal cord histology after 40 days of treatment (day 80 post immunization): SCR and H-E sections, vs saline
Protocol: Animal Sacrifice and Histological Analysis. Untreated, chronic EAE animals (n=5) were sacrificed on day 40, as well as non-EAE controls (n=5). Following each 10-day treatment interval, 5 animals from each group were sacrificed (0.25 mL sodium pentobarbital), blood samples were collected for FACS analysis (see below), and the brain and spinal cord dissected and sectioned. Three spinal sections were used, corresponding to lumbar, thoracic and cervical regions of the cord. The brain was cut into five transverse sections. The first three proximal sections were combined in one block, and the last two distal sections in another. Tissues were fixed in 10% formalin and embedded in paraffin. […] sections were stained with hematoxylin-eosin (H-E) or solochrome-R-cyanlin (SCR) and evaluated by a blinded observer in each of four categories: (1) meningeal inflammation, (2) perivascular infiltration, (3) encephalitis or (4) myelitis and demyelination (Table 6). The combined pathological score represents the total score (out of a potential 20) from all 5 CNS sections in each animal.
(§1) Statistical Analysis. Statistical analysis was performed using SigmaStat v2 software (SPSS Inc.). Clinical scores were assessed using the Mann Whitney rank sum test, while pathological scores were assessed with a two-Way ANOVA. Quantitative abnormalities were compared using Kruskal-Wallis ANOVA on ranks. In each case, p<0.05 was considered significant. A linear regression was performed on the mean cell counts in the spinal cord.

[3] = test system: experimental allergic encephalomyelitis in female Hartley guinea pigs; experiment: Chronic EAE in guinea pigs: mean cell counts in spinal cord (H-E sections); format: in vivo, guinea pig; conditions: for cell number in spinal cord vs saline-treated animals: after 10, 20, 30 or 40 days of therapy, p<0.001 two-way ANOVA; for mean cell count in spinal cord 10 days after removal vs continuous treatment: p<0.05 ANOVA on ranks with SNK test
Protocol: To quantify the abnormalities observed in the spinal cord, sections stained with H-E were divided into 12 representative pie-shaped areas. In each area, the number of cells within a 0.12 mm^2 field of view was counted using Sigma Scan Pro image analysis software (SPSS Inc.), and the combined mean number of cells in all 12 areas was calculated for the whole spinal cord (36 fields of view per animal). Note that as all cell nuclei were counted, the number of cells may include neurons and glial cells in addition to infiltrates.
as §1

α4β1 = biological target: T1, α4β1 (Homo sapiens, UniProt P05556+P13612); experiment: In vitro saturation assay for determining binding of candidate compounds to α4β1 (Jurkat cells in plasma, 15/7 antibody, FACS); format: cell-based; conditions: guinea pig, 30 mg/kg twice a day subcutaneously
T1 construct: endogenous in cells; host or cells: Jurkat cells
T1 sequence (P13612 34-1032): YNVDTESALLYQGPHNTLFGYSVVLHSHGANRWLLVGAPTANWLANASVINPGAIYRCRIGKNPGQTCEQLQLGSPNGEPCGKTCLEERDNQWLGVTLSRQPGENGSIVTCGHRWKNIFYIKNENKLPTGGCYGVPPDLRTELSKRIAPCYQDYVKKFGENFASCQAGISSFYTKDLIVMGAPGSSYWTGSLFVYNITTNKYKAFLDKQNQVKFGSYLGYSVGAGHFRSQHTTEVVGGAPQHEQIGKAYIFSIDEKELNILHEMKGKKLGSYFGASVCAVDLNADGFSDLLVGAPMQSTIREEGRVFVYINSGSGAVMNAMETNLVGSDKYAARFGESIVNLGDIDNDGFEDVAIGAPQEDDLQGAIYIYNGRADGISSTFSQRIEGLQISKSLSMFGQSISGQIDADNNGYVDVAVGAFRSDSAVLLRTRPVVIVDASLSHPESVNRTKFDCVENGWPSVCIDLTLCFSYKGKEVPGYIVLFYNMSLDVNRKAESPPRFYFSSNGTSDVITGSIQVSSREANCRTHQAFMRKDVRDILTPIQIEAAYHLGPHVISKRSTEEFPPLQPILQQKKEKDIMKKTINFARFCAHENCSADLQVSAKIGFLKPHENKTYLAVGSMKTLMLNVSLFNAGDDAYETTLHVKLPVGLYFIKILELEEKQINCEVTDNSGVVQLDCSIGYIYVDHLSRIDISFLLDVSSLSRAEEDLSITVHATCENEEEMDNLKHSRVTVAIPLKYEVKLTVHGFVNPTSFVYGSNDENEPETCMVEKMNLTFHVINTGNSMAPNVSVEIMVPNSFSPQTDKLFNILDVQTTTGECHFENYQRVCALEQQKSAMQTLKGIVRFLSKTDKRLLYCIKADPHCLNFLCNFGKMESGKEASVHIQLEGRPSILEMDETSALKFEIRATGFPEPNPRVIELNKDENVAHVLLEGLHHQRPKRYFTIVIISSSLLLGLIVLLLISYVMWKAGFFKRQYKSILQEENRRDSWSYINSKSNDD
T1 sequence (P05556 21-798): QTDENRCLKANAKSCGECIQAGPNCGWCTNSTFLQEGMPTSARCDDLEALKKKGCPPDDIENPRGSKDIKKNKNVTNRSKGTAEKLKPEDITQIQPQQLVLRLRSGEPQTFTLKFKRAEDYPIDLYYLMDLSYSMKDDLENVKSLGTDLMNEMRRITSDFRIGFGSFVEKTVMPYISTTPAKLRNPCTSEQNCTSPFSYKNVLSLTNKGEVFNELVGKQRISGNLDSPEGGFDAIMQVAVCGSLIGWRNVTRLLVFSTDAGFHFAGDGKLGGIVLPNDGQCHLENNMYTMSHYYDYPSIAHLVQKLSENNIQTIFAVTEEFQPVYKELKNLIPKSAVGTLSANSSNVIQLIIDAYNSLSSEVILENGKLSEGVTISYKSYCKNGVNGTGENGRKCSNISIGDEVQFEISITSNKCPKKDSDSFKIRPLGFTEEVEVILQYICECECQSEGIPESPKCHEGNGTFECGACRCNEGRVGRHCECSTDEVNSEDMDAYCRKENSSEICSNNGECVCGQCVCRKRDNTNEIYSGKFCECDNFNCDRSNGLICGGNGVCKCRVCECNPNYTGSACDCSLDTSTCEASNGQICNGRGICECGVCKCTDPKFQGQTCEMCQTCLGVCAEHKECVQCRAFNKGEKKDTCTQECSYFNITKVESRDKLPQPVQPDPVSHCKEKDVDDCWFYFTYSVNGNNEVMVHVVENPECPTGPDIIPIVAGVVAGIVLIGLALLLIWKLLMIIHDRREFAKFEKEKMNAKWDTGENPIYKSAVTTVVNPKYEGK
Protocol: The following describes an in vitro assay to determine the plasma levels needed for a compound to be active in the Experimental Autoimmune Encephalomyelitis (“EAE”) model, described in the next example, or in other in vivo models.
Log-growth Jurkat cells are washed and resuspended in normal animal plasma containing 20 μg/ml of the 15/7 antibody (described in the above example).
The Jurkat cells are diluted two-fold into either normal plasma samples containing known candidate compound amounts in various concentrations ranging from 66 μg/mL to 0.01 μg/mL, using a standard 12 point serial dilution for a standard curve, or into plasma samples obtained from the peripheral blood of candidate compound-treated animals.
Cells are then incubated for 30 minutes at room temperature, washed twice with phosphate-buffered saline (“PBS”) containing 2% fetal bovine serum and 1 mM each of calcium chloride and magnesium chloride (assay medium) to remove unbound 15/7 antibody. […]
Cells are washed twice with assay medium and resuspended in the same. They are then analyzed with a standard fluorescence activated cell sorter analysis as described in Yednock et al., J. Bio. […]
The data is then graphed as fluorescence versus dose, e.g., in a normal dose-response fashion. […]

[4] = test system: α4 integrin on lymphocytes and monocytes; experiment: Chronic EAE in guinea pigs: FACS analysis of α4 integrin on circulating lymphocytes and monocytes; format: in vivo, guinea pig
Protocol: FACS Analysis. On day 80 post-immunization, heparinized blood samples were collected from non-EAE animals, saline-treated animals, N-[N-(3-pyridinesulfonyl)-L-3,3-dimethyl-4-thiaprolyl]-O-[1-methylpiperazin-4-ylcarbonyl]-L-tyrosine isopropyl ester-treated animals and animals 10 days following withdrawal of N-[N-(3-pyridinesulfonyl)-L-3,3-dimethyl-4-thiaprolyl]-O-[1-methylpiperazin-4-ylcarbonyl]-L-tyrosine isopropyl ester. All samples were maintained at 4° C. for all procedures. 150 μl samples were exposed to primary antibody for 30 minutes, washed twice, and then incubated with PE-conjugated goat anti-mouse IgG Fc in the presence of 5% guinea pig serum (Beckman Coulter #PN EM055 1). Red blood cells were lysed with Becton-Dickinson lysing solution and the samples were examined on a FACScan flow cytometer (Becton Dickinson, Mountain View, Calif.) gating on different cell populations by light scatter.

[5] = listed as N-[N-(3-pyridinesulfonyl)-L-3,3-dimethyl-4-thiaprolyl]-O-[1-methylpiperzain-4-yl

CC(C)OC(=O)[C@H](Cc1ccc(OC(=O)N2CCN(C)CC2)cc1)NC(=O)[C@H]1N(S(=O)(=O)c2cccnc2)CSC1(C)C [N-[N-(3-pyridinesulfonyl)-L-3,3-dimethyl-4-thiaprolyl]-O-[1-methylpiperazin-4-ylcarbonyl]-L-tyrosine isopropyl ester]
incidence of remyelination (lesions showing myelin pallor as percent of all lesions) vs saline ([1]; 10-40 days, time-dependent): increased the incidence of remyelination | appearance of spinal cord lesions after 10 days of treatment (solochrome-R-cyanin) ([1]; 10 days): minimal evidence of myelin pallor | appearance of spinal cord lesions after 20 days of therapy (solochrome-R-cyanin) [1]: many lesions exhibited diffuse pale blue staining | appearance of spinal cord lesions after 20 days of therapy (solochrome-R-cyanin) [1, 5]: diffuse blue stain covering the plaque | appearance of spinal cord lesions after 40 days of therapy (solochrome-R-cyanin) [1]: presented as shadow plaques | appearance of spinal cord lesions after 40 days of therapy (solochrome-R-cyanin) [1, 5]: majority of lesions showed clear myelin pallor | area of remyelination as percent of total lesion area ([1]; after 20, 30 or 40 days of therapy): 50% | degree of remyelination of individual lesions ([1]; after 20, 30 or 40 days of treatment): 0-100% | area of thinly myelinated axons in toluidine blue semithin sections vs saline [1]: greatly expanded | electron microscopy of lesioned spinal cord [1]: multiple thin myelin layers around large caliber axons | area of thinly myelinated axons in toluidine blue semithin sections vs saline [1, 5]: more extensive | electron microscopy of lesioned spinal cord [1, 5]: multiple layers of thin myelin wrappings around large diameter axons | animals that regained motor function ([1]; paralyzed guinea pigs (clinical score 2) treated up to 40 days): 50% | mean pathological score in each of four categories (meningeal inflammation, perivascular infiltration, encephalitis/myelitis, demyelination) vs saline ([2]; 10-40 days treatment, p<0.001 two-way ANOVA): significant decrease | spinal cord histology after 20 days of treatment (day 60 post immunization) [2]: much smaller areas of demyelination | spinal cord histology after 40 days of treatment (day 80 post immunization) [2]: almost no meningeal and perivascular infiltration | spinal cord histology after 20 days of treatment (day 60 post immunization) [2, 5]: much smaller area of demyelination | spinal cord histology after 40 days of treatment (day 80 post immunization) [2, 5]: almost no meningeal and perivascular inflammation | mean combined pathological score after withdrawal for 10 days vs continued treatment ([2]; p<0.05 Kruskal Wallis ANOVA on ranks with SNK test): significantly higher | cell number in spinal cord vs saline-treated animals [3]: significant reduction | cell number in spinal cord vs saline-treated animals [3, 5]: fewer cells | mean cell counts in spinal cord vs chronic control (d40) EAE animals ([3]; after 20, 30 or 40 days of treatment, p<0.05): significantly lower | mean cell count in spinal cord vs non-EAE animals ([3]; after 40 days of treatment): not different | mean cell count in spinal cord 10 days after removal vs continuous treatment [3]: significant increase | mean cell count in spinal cord 10 days after removal vs continuous treatment [3, 5]: significantly increased | rate of cell loss in spinal cord ([3]; slope of linear regression of mean cell counts (r^2=0.90)): 8 cells/mm^2/day | receptor saturation levels maintained at all times (α4β1): > 10 nm | percentage of α4 integrin bright lymphocytes in the circulation after removal ([4]; day 80, 10 days after withdrawal): returned to saline-treated levels | increase of α4 integrin expression on circulating monocytes in EAE ([4]; day 80 post immunization): not affected | α4 integrin bright lymphocytes in the circulation vs saline-treated animals ([4]; day 80 post immunization): large increase

From patent publication US7576101B2, “Composition for and treatment of demyelinating diseases and paralysis by administration of remyelinating agents” (Elan Pharmaceuticals, Inc., priority 2003, dated 2009)
